Assay results: patent US7423068B2, “Control of parasitic mites of honey bees” (The United States of America as represented by the …, priority 2001, dated 2008)
Marks after values point to notes of the source that are not given here.

Key:
[1] = system: honey bee (Apis mellifera L.) colony; assay: Influence of 2-heptanone on honey bee colony behavior (two-frame observation hive); type: in vivo
Method: Tests were conducted with 2-heptanone in pure form and in a 30% concentration in acrylic block made as in Example 6 to determine its effects on the honey bee (Apis mellifera L.) colony behavior. A two-frame observation hive (the hive had one frame on the bottom with adult worker bees and brood and a top frame with adult worker bees and honey) with a laying queen was used for the study. […] Within 4 hours the 2-heptanone had evaporated, and the bees returned to the frame, and the fanning stopped.
To test the effects of 2-heptanone in acrylic blocks, we again conducted studies using two frame observation hives arranged as described above. For one week prior to inserting the acrylic blocks, we measured queen ovipositions, and the number of workers bees leaving the hive per 5-minute interval in four observation colonies. We also counted the number of workers in a court surrounding the queen once during the 5-minute interval. We then added one acrylic block dispenser with a surface area of 8.04 cm^2 containing a 30% concentration of 2-heptanone. […] The latter served as Controls.

[2] = Release rate of 2-heptanone from acrylic blocks; type: physicochemical; conditions: acrylic block, 34° C.
Source text: Blocks having the following composition were made:
Polymerization was triggered with 2.9% benzoyl peroxide and 1.1% dimethylparatoluidine. Each block weighed approximately 30 grams (Diam. 60 mm, Height 10 mm). The blocks were molded in an aluminum cup.
However, it was found, because of a packaging problem, that the blocks lost some active ingredient during transportation and had only 30% 2-heptanone. To avoid any further loss of active ingredient, the unused samples were stored at all times in a refrigerator at 4° C. The value of 30% 2-heptanone was kept for further processing of the data. The rate at which 2-heptanone was released from the blocks was measured. The experimental procedure consisted in weighing the acrylic blocks left in their aluminum mold at regular intervals. The blocks were kept in an incubator set at 34° C. (temperature of the center of the brood nest in a honey bee hive). It is noteworthy that the incubator is not air tight and that the incubator glass door had to be opened to retrieve the sample to be weighed. An Isotemp Incubator from Fisher Scientific was used. The incubator has a measured volume of 71 liters. The samples were monitored for 44 days.

[3] = system: Varroa mites; assay: Attractant petri dish bioassay with 20% 2-heptanone gel formulation; type: in vivo, Varroa jacobsoni; conditions: 40 μL of 20% 2-heptanone gel
Method: We conducted bioassays to deternine if 2-heptanone attracts Varroa mites. In the first bioassay, we exposed free-running adult mites to volatiles from a 20% 2-heptanone in a gel formulation. […] 40 μL of 20% 2-heptanone in a gel formulation was added to a weighing boat located in the center of the petri dish. Control dishes were set up as described above with empty weighing boats in the center. Within 24 hours 27.3% of the mites were found in the gel formulation of 2-heptanone located in the weighing boat in the center of the petri dish. No mites were found in the weighing boat in the Control dish. The bioassay was repeated using the same procedure as described above. In the second replicate, 16.7% of the mites were found in the gel formulation of 2-heptanone located in the weighing boat in the center of the petri dish and again 0% were found in the weighing boats of the Control dishes.

[4] = system: free-running adult mites
Method: 2-Heptanone was tested for miticidal activity in two separate sets of bioassays. In the petri dish bioassays we exposed free-running adult mites to volatiles from 2-heptanone either in pure form or in an acrylic block dispenser (as described in a further experiment, below) and measured mortality over time. Mites were placed in petri dishes (5-10 mites/dish, 4 dishes per treatment and 4 dishes for controls) that were lined on the bottom with damp tissue paper covered with Parafilm®. Holes were punched in the Parafilm® using an insect pin to create a humid environment in the petri dish. A piece of filter paper the same size as the petri dish was placed on top of the Parafilm® sheet. In the first petri dish bioassay, 40 μl of pure 2-heptanone was placed on a piece of filter paper on the lid of the petri dish (treatment dishes). The Control dishes were set up as described above but nothing was added to the piece of filter paper fastened to the lid of the petri dish. The petri dishes were placed in separate incubators for treatments and Controls. Incubator temperatures were maintained at 33-34.4° C. […] In the second bioassay 0.1 g of a 30% concentration of 2-heptanone in acrylic block made as in Example 6 was placed in a plastic weighing boat in the center of petri dishes prepared as described above. Control petri dishes were prepared identically to those containing the acrylic block, but the weighing boat in the center of the dish was empty.
In another series of tests, 2-heptanone, 98+% (Sigrma-Aldrich); 3-heptanone (Fluka Chemika); 4-heptanone (Fluka Chemika); 2-hexanone; 2-octanone, 98% (Aldrich Chemical Co.); 1-heptanol (Fluka Chemika, 99.5% GC), and heptaldehyde, 95% (Aldrich Chemical Co.) were tested in petri dish bioassays wherein free-running adult mites were exposed to 40 μl of pure compound placed on filter paper as described above. The test conditions and Controls were as described above.
The test conditions and Controls were as described above.

[5] = filter paper with 40 μl of pure 2-heptanone

CCCCCC(C)=O [2-Heptanone]
immediate effect on the bees on the frames ([1]; acrylic block 8.04 cm^2, 30% 2-heptanone): no immediate effect on the bees on the frames | Ovipositions, Post-Treatment ([1]; acrylic block 8.04 cm^2, 30% 2-heptanone, average per 5-minute interval, pretreatment 5.3): 5.3 | Workers in court, Post-Treatment ([1]; acrylic block 8.04 cm^2, 30% 2-heptanone, average per 5-minute interval, pretreatment 10.2): 10.2 | Foragers leaving, Post-Treatment ([1]; acrylic block 8.04 cm^2, 30% 2-heptanone, average per 5-minute interval, pretreatment 16.1, significantly different p = 0.05): 23.6* | bee behavior after placing 2-heptanone in observation colony [1, 5]: all the bees moved off of the frame and began to fan | time until 2-heptanone evaporated, bees returned to the frame and fanning stopped [1, 5]: ≤ 4 h | % 2-Heptanone loss (initial conc. 30%) ([2]; Day 0): 0% | Daily release in percentage ([2]; Day 0): 0 percentage | % 2-Heptanone loss (initial conc. 30%) ([2]; Day 1): 29.13% | Daily release in percentage ([2]; Day 1): 29.13 percentage | % 2-Heptanone loss (initial conc. 30%) ([2]; Day 2): 38.76% | Daily release in percentage ([2]; Day 2): 9.63 percentage | % 2-Heptanone loss (initial conc. 30%) ([2]; Day 3): 49.04% | Daily release in percentage ([2]; Day 3): 10.28 percentage | % 2-Heptanone loss (initial conc. 30%) ([2]; Day 4): 55.72% | Daily release in percentage ([2]; Day 4): 6.68 percentage | % 2-Heptanone loss (initial conc. 30%) ([2]; Day 7): 68.85% | Daily release in percentage ([2]; Day 7): 4.38 percentage | % 2-Heptanone loss (initial conc. 30%) ([2]; Day 8): 71.82% | Daily release in percentage ([2]; Day 8): 2.97 percentage | % 2-Heptanone loss (initial conc. 30%) ([2]; Day 9): 74.7% | Daily release in percentage ([2]; Day 9): 2.88 percentage | % 2-Heptanone loss (initial conc. 30%) ([2]; Day 10): 76.09% | Daily release in percentage ([2]; Day 10): 1.39 percentage | % 2-Heptanone loss (initial conc. 30%) ([2]; Day 11): 77.88% | Daily release in percentage ([2]; Day 11): 1.79 percentage | % 2-Heptanone loss (initial conc. 30%) ([2]; Day 14): 82.31% | Daily release in percentage ([2]; Day 14): 1.48 percentage | % 2-Heptanone loss (initial conc. 30%) ([2]; Day 15): 83.43% | Daily release in percentage ([2]; Day 15): 1.12 percentage | % 2-Heptanone loss (initial conc. 30%) ([2]; Day 16): 84.39% | Daily release in percentage ([2]; Day 16): 0.96 percentage | % 2-Heptanone loss (initial conc. 30%) ([2]; Day 18): 86.24% | Daily release in percentage ([2]; Day 18): 0.92 percentage | % 2-Heptanone loss (initial conc. 30%) ([2]; Day 21): 88.43% | Daily release in percentage ([2]; Day 21): 0.73 percentage | % 2-Heptanone loss (initial conc. 30%) ([2]; Day 24): 89.98% | Daily release in percentage ([2]; Day 24): 0.52 percentage | % 2-Heptanone loss (initial conc. 30%) ([2]; Day 30): 92.36% | Daily release in percentage ([2]; Day 30): 0.4 percentage | % 2-Heptanone loss (initial conc. 30%) ([2]; Day 44): 95.21% | Daily release in percentage ([2]; Day 44): 0.2 percentage | % of the mites found in the gel formulation in the weighing boat ([3]; second replicate, Control 0%): 16.7% | % of the mites found in the gel formulation in the weighing boat ([3]; within 24 hours, first bioassay, Control none): 27.3% | % of the mites dead ([4]; 0.1 g of 30% 2-heptanone in acrylic block, 4 hrs., controls 6%): 90% | time until all the mites were dead ([4]; 40 μl pure 2-heptanone on filter paper, 33-34.4° C., controls 0% mortality): less than 2 hrs.
